Each compound was assayed against T1, human α4β2 subtype of nicotinic acetylcholine receptors (Homo sapiens, UniProt P17787+P43681). Conditions: response at 100 μM test compound, in comparison with response at 10 μM acetylcholine (100%); oocytes held at −50 mV.
T1 construct: expressed in transfected cells; host or cells: Xenopus laevis oocytes injected with hnACh-R α4 and β2 cRNA (pSP64 polyA vector)
T1 sequence (P43681 29-627 limits assumed): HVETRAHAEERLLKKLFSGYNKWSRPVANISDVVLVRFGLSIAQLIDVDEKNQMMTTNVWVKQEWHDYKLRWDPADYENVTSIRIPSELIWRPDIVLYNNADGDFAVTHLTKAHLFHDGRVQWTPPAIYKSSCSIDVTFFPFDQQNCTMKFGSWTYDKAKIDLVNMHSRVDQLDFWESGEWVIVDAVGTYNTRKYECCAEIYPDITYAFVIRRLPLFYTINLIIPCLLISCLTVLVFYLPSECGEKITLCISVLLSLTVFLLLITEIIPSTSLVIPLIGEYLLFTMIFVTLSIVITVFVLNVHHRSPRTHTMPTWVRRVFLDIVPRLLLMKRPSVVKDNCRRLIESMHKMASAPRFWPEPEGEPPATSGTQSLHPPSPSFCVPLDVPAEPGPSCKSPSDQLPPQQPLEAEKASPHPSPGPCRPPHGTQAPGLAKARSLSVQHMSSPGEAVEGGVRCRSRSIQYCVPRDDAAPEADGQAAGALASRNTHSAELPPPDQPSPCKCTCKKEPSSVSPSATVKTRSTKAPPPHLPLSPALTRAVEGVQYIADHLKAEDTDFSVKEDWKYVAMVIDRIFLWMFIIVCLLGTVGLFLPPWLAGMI
T1 sequence (P17787 26-502): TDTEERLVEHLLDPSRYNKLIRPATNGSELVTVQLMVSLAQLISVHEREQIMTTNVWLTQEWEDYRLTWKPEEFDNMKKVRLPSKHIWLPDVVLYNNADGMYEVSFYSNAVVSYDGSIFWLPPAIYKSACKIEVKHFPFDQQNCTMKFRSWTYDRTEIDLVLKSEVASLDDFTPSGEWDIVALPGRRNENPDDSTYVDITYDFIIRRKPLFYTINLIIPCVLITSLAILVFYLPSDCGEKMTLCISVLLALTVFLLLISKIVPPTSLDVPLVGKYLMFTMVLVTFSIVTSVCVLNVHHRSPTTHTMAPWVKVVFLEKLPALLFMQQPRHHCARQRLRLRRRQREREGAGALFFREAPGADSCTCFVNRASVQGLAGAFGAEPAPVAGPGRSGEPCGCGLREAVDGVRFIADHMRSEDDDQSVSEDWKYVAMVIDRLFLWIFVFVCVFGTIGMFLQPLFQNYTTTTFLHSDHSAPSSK
Type: cell-based
Protocol: The agonist effect in human α4β2 subtype of nicotinic acetylcholine receptors are examined by using human nicotinic acetylcholine receptors prepared in oocytes of Xenopus laevis, which is injected with cRNA from the corresponding cloning cDNA of human α4 and β2 subunits of nicotinic acetylcholine receptors, and to measure the expression of the electric response by adding the test compounds to perfusion solution by means of membrane potential holding method.
Agonist Activities at Human α4β2 Subtype of Nicotinic Acetylcholine Receptors
The agonist activities of the compounds of the present invention at human α4β2 subtype of nicotinic acetylcholine receptors was evaluated by the following method, which was modified method described by Papke R. L., Thinschmidt J. S., Moulton B. A., Meyer E. M. & Poirier A., Br. J. Pharmacol., 120, 429-438 (1997).
(1) Preparation of cRNA of Human α4β2 Subtype of Nicotinic Acetylcholine Receptors
The cloning of human nicotinic acetylcholine receptor (hnACh-R) α4 cDNA and hnAC-R β2 cDNA were performed, in accordance with the conventional manners, by synthesizing the each DNA primers corresponding to the sequences of hnACh-R α4 cDNA and hnACh-R β2 cDNA [Monteggia L. M. et al., Gene, 155, 189-193 (1995); and Anand R., & Lindstrom J., Nucl. Acids Res., 18, 4272 (1990)], and obtained hnACh-R α4 cDNA and hnACh-R β2 cDNA by polymerase chain reaction (PCR), respectively. The obtained hnACh-R α4 cDNA and hnACh-R β2 cDNA were inserted to the cRNA expression vector (pSP64 polyA) having SP6 RNA promoter to construct hnACh-R α4/pSP64 polyA and hnACh-R β2/pSP64 polyA, respectively. After cutting from expression vector by restriction enzyme (EcoRI), transcription was performed by affecting SP6 RNA polymerase in the presence of cap analogues to obtain hnACh-R α4 cRNA and hnACh-R β2 cRNA, respectively.
(2) Expression of Human α4β2 Subtype Nicotinic Acetylcholine Receptors in Xenopus Oocytes
Oocytes were purchased from Kitanihonseibustukyohzai Co., Ltd., which were already enucleated from Xenopus laevis, and used in this experiment.
The oocytes were treated with collagenase (Sigma type I; 1 mg/ml) in calcium-free modified Birth's solution (88 mM of NaCl, 1 mM of KCl, 2.4 mM of NaHCO3, 0.82 mM of MgSO4, 15 mM of HEPES, pH 7.6) under gently stirring at the room temperature for 90 minutes, and washed out the enzyme from the tissue. Then, oocytes were separated from ovarian follicle by tweezers, and isolated oocytes were placed in antibiotics containing modified Birth's solution (88 mM of NaCl, 1 mM of KCl, 2.4 mM of NaHCO3, 0.82 mM of MgSO4, 15 mM of HEPES, pH 7.6, and 0.1 v/v % of mixture solution containing of penicillin and streptomycin for incubation; Sigma Co.). Thus treated oocytes were injected with 50 nl of adjusted cRNAs (1.0 mg/ml), that is, each 50 ng of hnACh-R α4 cRNA and hnACh-R β2 cRNA per 1 oocyte by using automatic injector (NANOJECT; DRUMMOND […] CO.), and further incubated for 4-14 days at 19° C. In oocytes, heterogeneous quintuple [(α4)2(β2)3] was composed by translation of injected cRNAs, and ion channel receptors were constructed on cell membrane.
(3) Agonist Activities at Human α4β2 Subtype of Nicotinic Acetylcholine Receptors
The recordings of responses at human α4β2 subtype of nicotinic acetylcholine receptors by means of membrane potential holding method were performed as follow. […] Test compounds were added to the perfusion solution, and recorded the peak strength of induced inward electric current. […]
For `Clc1ccc(C/N=C2\SCCN2Cc2ccc(Cl)nc2)cn1` [Compound 1, 3-(6-chloro-3-pyridyl)methyl-2-[(6-chloro-3-pyridyl)methyl]iminothiazolidine], the Agonist effect was 6%.
`Clc1ccc(C/N=C2\OCCCN2Cc2ccc(Cl)nc2)cn1` [Compound 2, 3-(6-chloro-3-pyridyl)methyl-2-[(6-chloro-3-pyridyl)-methyl]imino-3,4,5,6-tetrahydro-2H-1,3-oxazine] showed an Agonist effect of 27%.
`Clc1ccc(C/N=c2\sccn2Cc2ccc(Cl)nc2)cn1` [Compound 8, 3-(6-chloro-3-pyridyl)methyl-2-[(6-chloro-3-pyridyl)methyl]imino-2,3-dihydrothiazole] gave an Agonist effect of 11%.
`Cn1ccn(Cc2ccc(Cl)nc2)c1=N` [Compound 13, 1-(6-chloro-3-pyridyl)methyl-2-imino-3-methyl-2,3-dihydroimidazole] was tested, and the Agonist effect was 5%.

Reference: US6900202B2, “Di-substituted imineheterocyclic compounds” (priority 2000, dated 2005)
